From patent publication US20100298347A1, “SUBSTITUTED 2-NAPHTHOIC ACIDS AS ANTAGONISTS OF GPR105 ACTIVITY” (MERCK FROSST CANADA LTD, priority 2007, published 2010)
pIC50: −log10 of the molar value.

Biological target: T1, chimpanzee GPR105 protein (Pan troglodytes, UniProt A0A2J8P2M1)
T1 construct: expressed in transfected cells
T1 sequence (A0A2J8P2M1 1-338): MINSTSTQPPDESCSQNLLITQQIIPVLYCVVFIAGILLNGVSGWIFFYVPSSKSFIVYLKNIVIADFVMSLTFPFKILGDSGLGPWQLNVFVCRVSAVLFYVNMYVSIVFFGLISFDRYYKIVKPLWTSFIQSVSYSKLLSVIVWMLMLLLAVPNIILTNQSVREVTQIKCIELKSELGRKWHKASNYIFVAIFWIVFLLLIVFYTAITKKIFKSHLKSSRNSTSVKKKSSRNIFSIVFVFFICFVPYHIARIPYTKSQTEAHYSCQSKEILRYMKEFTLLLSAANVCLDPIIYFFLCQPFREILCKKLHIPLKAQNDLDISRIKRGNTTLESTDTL
Assay: Cell-Binding Assay: FLIPR calcium signaling in HEK/GPR105/Gqi5 cells, inhibition of UDP-glucose agonist
Assay type: cell-based
Settings: HEK cells expressing chimpanzee GPR105 and Gqi5; UDP-glucose agonist at EC80; inhibition of Ca2+ signaling by FLIPR
Protocol: A stable HEK clonal cell line expressing the chimpanzee GPR105 protein and the chimeric G protein Gqi5 was developed. The chimeric Gqi5 forces the coupling of GPR105 through the Gq (calcium) pathway and allows for monitoring of calcium signaling using a calcium binding fluorescent dye and the FLIPR (fluorometric imaging plate reader, MDS Sciex). 12,500 HEK/GPR105/Gqi5 expressing cells were plated in 25 μL Dulbecco's Modified Eagle's Medium (DMEM) containing 10% fetal bovine serum (FBS) onto 384-well, poly-D-lysine coated plates. Cells were incubated overnight at 37° C. and 5% CO2 to form a monolayer. On the following day, 30 μl, of fluorescent no-wash dye was added to the cell monolayer and the plate was incubated for […] at 37° C., 5% CO2. […] of compound in 100% DMSO was added to cell/dye incubation using acoustic dispensing (Echo™, Labcyte). Following a 20 minute incubation of compound at room temperature, 6.25 μL of UDP-glucose agonist (at EC80) in Hank's Balanced Salt Solution (HBSS) containing 20 mM Hepes was added to cells and Ca^2+ signaling was monitored by FLIPR. Quantitation of the % inhibition of Ca^2+ signaling by antagonist was calculated using the maximum fluorescent signal detected. IC50's for the compounds of structural formula (I) were calculated as follows:
a.) Basal=incubation of cells+DMSO+Buffer; b.) EC80=incubation of cells of DMSO+agonist to achieve 80% maximum stimulation of calcium release; c.) Compound=incubation of cells+antagonist in DMSO+EC80 agonist; d.) Calcium release monitored by Fluorescence (RFU relative fluorescence units) using the FLIPR; e.) The percentage of inhibition was calculated according to the equation: (1−(compound sample−Basal)/(EC80−Basal))×100; f.) The percentage of inhibition at each dose was plotted, the Four Parameter Logistic Fit performed to draw the curve and the IC50 is the compound dose where the % inhibition=50%.

Compound	pIC50
O=C(O)c1cc(-c2ccc(C3CCNCC3)cc2)c2ccc(-c3ccc(C(F)(F)F)cc3)cc2c1	8.66
Cc1cccc(C)c1COc1ccc2c(-c3ccc(CO)cc3)cc(C(=O)O)cc2c1	7.78
COc1ccccc1COc1cc(C(=O)O)cc2cc(OCc3c(C)cccc3C)ccc12	7.85
O=C(O)c1cc(-c2ccsc2)c2ccc(OCc3cc(C(F)(F)F)ccc3Cl)cc2c1	7.59
Cc1cc(F)cc(C)c1COc1ccc2c(-c3ccsc3)cc(C(=O)O)cc2c1	7.84
Cc1cccc(C)c1COc1ccc2c(-c3ccc4c(c3)OCO4)cc(C(=O)O)cc2c1	7.71
O=C(O)c1cc(-c2ccsc2)c2ccc(OCc3c(F)cccc3F)cc2c1	7.65
Cc1cccc(C)c1COc1ccc2c(-c3ccc(C=O)cc3)cc(C(=O)O)cc2c1	7.65
O=C(O)c1cc(-c2ccsc2)c2ccc(OCc3c(Cl)cncc3Cl)cc2c1 [drawing 30]	7.82
Cc1ccc(Cl)c(COc2ccc3c(-c4ccsc4)cc(C(=O)O)cc3c2)c1F	7.69
CC(=O)c1ccc(-c2cc(C(=O)O)cc3cc(OCc4c(C)cccc4C)ccc23)cc1	7.76
Cc1cccc(C)c1COc1ccc2c(-c3ccsc3)cc(C(=O)O)cc2c1	7.79
O=C(O)c1cc(-c2ccsc2)c2ccc(OCc3c(Br)cccc3Br)cc2c1	7.61
Cc1cccc(C)c1COc1ccc2c(-c3ccc(O)cc3)cc(C(=O)O)cc2c1	7.74
O=C(O)c1cc(-c2ccsc2)c2ccc(OCc3c(Cl)cccc3Br)cc2c1	7.75
Cc1cccc(C)c1COc1ccc2c(-c3ccc(C(C)(C)O)cc3)cc(C(=O)O)cc2c1	7.79
Cc1ccc(C(F)(F)F)cc1COc1ccc2c(-c3ccsc3)cc(C(=O)O)cc2c1	7.77
CS(=O)(=O)c1cc(-c2cc(C(=O)O)cc3cc(-c4ccc(OC(F)(F)F)cc4)ccc23)cs1	7.62
O=C(O)c1cc(-c2ccccc2)c2ccc(OCc3c(Cl)ccc(Cl)c3Cl)cc2c1	7.66
Cc1cccc(C)c1COc1ccc2c(OCc3ccccc3)cc(C(=O)O)cc2c1	7.67
O=C(O)c1cc2cc(-c3ccc(C(F)(F)F)cc3)ccc2c(-c2ccc([C@@H](O)C(F)F)cc2)c1F	7.61
O=C(O)c1cc2cc(-c3ccc(C(F)(F)F)cc3)ccc2c(-c2ccc([C@H](O)C(F)(F)F)cc2)c1F	7.59

Now from value to compound:

pIC50	Compound
7.92	Cc1cccc(C)c1COc1ccc2c(-c3ccc(S(C)(=O)=O)cc3)cc(C(=O)O)cc2c1
7.98	O=C(O)c1cc(-c2ccsc2)c2ccc(OCc3c(F)cc(F)cc3F)cc2c1
8.03	O=C(O)c1cc(-c2ccsc2)c2ccc(OCc3c(Cl)cccc3Cl)cc2c1
8.52	O=C(O)c1cc(-c2ccc(-c3cn4cccnc4n3)cc2)c2ccc(-c3ccc(C(F)(F)F)cc3)cc2c1
7.89	O=C(O)c1cc(-c2ccc(C(O)C(F)(F)F)cc2)c2ccc(-c3ccc(C(F)(F)F)cc3)cc2c1 (centres unmarked)
7.95	O=C(O)c1cc(-c2ccc([C@@H](O)C(F)(F)F)cc2)c2ccc(-c3ccc(C(F)(F)F)cc3)cc2c1
7.86	C[S+]([O-])c1ccc(-c2cc(C(=O)O)cc3cc(-c4ccc(C(F)(F)F)cc4)ccc23)cc1 (centres unmarked)
7.91	CS(=O)(=O)c1cc(-c2cc(C(=O)O)cc3cc(-c4ccc(C(F)(F)F)cc4)ccc23)cs1
8.12	O=C(O)c1cc(-c2ccsc2)c2ccc(OCc3c(Cl)cncc3Cl)cc2c1 [drawing 14]
7.96	Cc1cccc(C)c1COc1ccc2c(-c3ccc(C(=O)O)cc3)cc(C(=O)O)cc2c1
7.90	O=C(O)c1cc(-c2ccsc2)c2ccc(OCc3c(F)cccc3Cl)cc2c1
7.85	O=C(O)c1cc(-c2ccc([C@@H](O)C(F)F)cc2)c2ccc(-c3ccc(F)cc3)cc2c1
7.91	CSc1ccc(-c2ccc3c(-c4ccc([C@@H](O)C(F)F)cc4)cc(C(=O)O)cc3c2)cc1
7.88	O=C(O)c1cc(-c2ccc(-c3nnc[nH]3)cc2)c2ccc(-c3ccc(C(F)(F)F)cc3)cc2c1
8.14	O=C(O)c1cc(-c2ccsc2)c2ccc(OCc3c(Cl)ccc(Cl)c3Cl)cc2c1
8.15	O=C(O)c1cc(-c2csc(C(O)C(F)F)c2)c2ccc(-c3ccc(C(F)(F)F)cc3)cc2c1 (centres unmarked)
8.27	O=C(O)c1cc(-c2ccc([C@@H](O)C(F)F)cc2)c2ccc(-c3ccc(C(F)(F)F)cc3)cc2c1
7.90	O=C(O)c1cc(-c2ccsc2)c2ccc(-c3ccc(OC(F)(F)F)cc3)cc2c1
8.20	O=C(O)c1cc(-c2ccc(C3(O)CCNCC3)cc2)c2ccc(-c3ccc(C(F)(F)F)cc3)cc2c1
